# According to patent US10131652B2, “Pyrimidinyloxy benzene derivatives as herbicides” (E. I. DU PONT DE NEMOURS AND COMPANY, priority 2014, dated 2018):
# Assays:
# Format in all cases: in vivo
# [1] = tested on: small-flower umbrella sedge (Cyperus difformis); assay: Test C flooded paddy test plant response; details: Flood, 250 g ai/ha; scale of 0 to 100 where 0 is no effect and 100 is complete control; 13 to 15 days
# How it was run: (§1)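 Plants grown to 2-leaf stage, flooded 3 cm above soil; compounds applied directly into paddy water, depth kept throughout. Visual rating versus controls after 13 to 15 days in greenhouse, 0 (no effect) to 100 (complete control).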
# rice (Oryza sativa) = assay: Test C flooded paddy test plant response; details: Flood, 250 g ai/ha; scale of 0 to 100 where 0 is no effect and 100 is complete control; 13 to 15 days
# How it was run: as §1
# [2] = tested on: barnyardgrass (Echinochloa crus-galli); assay: Test C flooded paddy test plant response; details: Flood, 250 g ai/ha; scale of 0 to 100 where 0 is no effect and 100 is complete control; 13 to 15 days
# How it was run: as §1
# [3] = tested on: ducksalad (Heteranthera limosa); assay: Test C flooded paddy test plant response; details: Flood, 250 g ai/ha; scale of 0 to 100 where 0 is no effect and 100 is complete control; 13 to 15 days
# How it was run: as §1
# corn (Zea mays) = assay: Test B pre-/postemergence plant response
# How it was run: (§2)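 Evaluation is visual, about 10 days after application, rating injury from 0 (none) to 100 (complete control) relative to untreated controls. Application was a preemergence soil spray on seeded pots or a postemergence spray on one- to two-leaf plants.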
# [4] = tested on: velvetleaf (Abutilon theophrasti); assay: Test B pre-/postemergence plant response
# How it was run: as §2
# [5] = tested on: giant foxtail (Setaria faberii); assay: Test B pre-/postemergence plant response
# How it was run: as §2
# [6] = tested on: barnyardgrass (Echinochloa crus-galli); assay: Test B pre-/postemergence plant response
# How it was run: as §2
# [7] = tested on: wheat (Triticum aestivum); assay: Test B pre-/postemergence plant response
# How it was run: as §2
# [8] = tested on: large (Lg) crabgrass (Digitaria sanguinalis); assay: Test B pre-/postemergence plant response
# How it was run: as §2
# [9] = tested on: morningglory (Ipomoea spp.); assay: Test B pre-/postemergence plant response
# How it was run: as §2
# [10] = tested on: pigweed (Amaranthus retroflexus); assay: Test B pre-/postemergence plant response
# How it was run: as §2
# [11] = 125 g ai/ha, postemergence, 0 to 100 scale, 0 no effect, 100 complete control
# [12] = Postemergence, 500 g ai/ha, 0 to 100 scale (0 no effect, 100 complete control)
# [13] = Preemergence, 125 g ai/ha, 0 to 100 scale where 0 is no effect and 100 is complete control
# [14] = Preemergence, 500 g ai/ha, 0 to 100 scale (0 no effect, 100 complete control)
# [15] = Preemergence, 500 g ai/ha, 0 to 100 scale where 0 is no effect and 100 is complete control
SMILES,"Sedge, Umbrella plant response rating [1]",Rice plant response rating (rice (Oryza sativa)),Barnyardgrass plant response rating [2],Ducksalad plant response rating [3],"Plant response rating, Corn (corn (Zea mays); [11])","Plant response rating, Corn (corn (Zea mays); [12])","Plant response rating, Corn (corn (Zea mays); [13])","Plant response rating, Velvetleaf [4, 11]","Plant response rating, Velvetleaf [4, 12]","Plant response rating, Velvetleaf [4, 13]","Plant response rating, Foxtail, Giant [5, 11]","Plant response rating, Foxtail, Giant [5, 12]","Plant response rating, Foxtail, Giant [5, 13]","Plant response rating, Barnyardgrass [6, 11]","Plant response rating, Barnyardgrass [6, 12]","Plant response rating, Barnyardgrass [6, 13]","Plant response rating, Wheat [7, 11]","Plant response rating, Wheat [7, 12]","Plant response rating, Wheat [7, 13]","Plant response rating, Crabgrass, Large [8, 11]",other results
FC(F)(F)c1cccc(-c2ccccc2Oc2ncc(Cl)cn2)n1 [Compound 19],0,0,0,0,0,0,0,0,0,0,0,0,0,0,0,0,0,0,0,0,"Plant response rating, Corn (corn (Zea mays); [14]): 0; Plant response rating, Velvetleaf [4, 14]: 0; Plant response rating, Foxtail, Giant [5, 14]: 70; Plant response rating, Barnyardgrass [6, 14]: 0; Plant response rating, Wheat [7, 14]: 0; Plant response rating, Crabgrass, Large [8, 12]: 0; Plant response rating, Crabgrass, Large [8, 13]: 0; Plant response rating, Crabgrass, Large [8, 14]: 50; Plant response rating, Morningglory [9, 11]: 0; Plant response rating, Morningglory [9, 12]: 0; Plant response rating, Morningglory [9, 13]: 0; Plant response rating, Morningglory [9, 14]: 0; Plant response rating, Pigweed [10, 11]: 0; Plant response rating, Pigweed [10, 12]: 0; Plant response rating, Pigweed [10, 13]: 0; Plant response rating, Pigweed [10, 14]: 20"
FC(F)(F)c1nccc(-c2ccccc2Oc2ncc(Cl)cn2)n1 [Compound 20],0,0,0,0,0,0,0,0,30,0,0,20,10,0,0,0,0,0,0,0,"Plant response rating, Corn (corn (Zea mays); [14]): 0; Plant response rating, Velvetleaf [4, 14]: 20; Plant response rating, Foxtail, Giant [5, 14]: 60; Plant response rating, Barnyardgrass [6, 14]: 0; Plant response rating, Wheat [7, 14]: 0; Plant response rating, Crabgrass, Large [8, 12]: 20; Plant response rating, Crabgrass, Large [8, 13]: 10; Plant response rating, Crabgrass, Large [8, 14]: 70; Plant response rating, Morningglory [9, 11]: 0; Plant response rating, Morningglory [9, 12]: 50; Plant response rating, Morningglory [9, 13]: 0; Plant response rating, Morningglory [9, 14]: 0; Plant response rating, Pigweed [10, 11]: 40; Plant response rating, Pigweed [10, 12]: 90; Plant response rating, Pigweed [10, 13]: 0; Plant response rating, Pigweed [10, 14]: 20"
FC(F)(F)c1ccnc(-c2ccccc2Oc2ncc(Br)cn2)c1 [Compound 26],0,0,0,0,10,20,0,10,80,10,0,30,0,0,20,0,0,10,0,10,"Plant response rating, Corn (corn (Zea mays); [15]): 0; Plant response rating, Velvetleaf [4, 15]: 80; Plant response rating, Foxtail, Giant [5, 15]: 90; Plant response rating, Barnyardgrass [6, 15]: 30; Plant response rating, Wheat [7, 15]: 0; Plant response rating, Crabgrass, Large [8, 12]: 30; Plant response rating, Crabgrass, Large [8, 13]: 10; Plant response rating, Crabgrass, Large [8, 15]: 100; Plant response rating, Morningglory [9, 11]: 10; Plant response rating, Morningglory [9, 12]: 50; Plant response rating, Morningglory [9, 13]: 0; Plant response rating, Morningglory [9, 15]: 0; Plant response rating, Pigweed [10, 11]: 30; Plant response rating, Pigweed [10, 12]: 80; Plant response rating, Pigweed [10, 13]: 0; Plant response rating, Pigweed [10, 15]: 100"
FC(F)(F)c1ccc(-c2ccccc2Oc2ncc(Br)cn2)nc1 [Compound 28],0,0,0,0,0,20,0,40,100,0,20,40,30,0,50,0,0,0,0,20,"Plant response rating, Corn (corn (Zea mays); [15]): 0; Plant response rating, Velvetleaf [4, 15]: 60; Plant response rating, Foxtail, Giant [5, 15]: 90; Plant response rating, Barnyardgrass [6, 15]: 60; Plant response rating, Wheat [7, 15]: 0; Plant response rating, Crabgrass, Large [8, 12]: 40; Plant response rating, Crabgrass, Large [8, 13]: 40; Plant response rating, Crabgrass, Large [8, 15]: 100; Plant response rating, Morningglory [9, 11]: 0; Plant response rating, Morningglory [9, 12]: 30; Plant response rating, Morningglory [9, 13]: 0; Plant response rating, Morningglory [9, 15]: 0; Plant response rating, Pigweed [10, 11]: 30; Plant response rating, Pigweed [10, 12]: 100; Plant response rating, Pigweed [10, 13]: 40; Plant response rating, Pigweed [10, 15]: 80"
Cn1nc(C(F)(F)F)cc1-c1ccccc1Oc1ncc(Cl)cn1 [Compound 29],0,0,0,0,0,0,0,0,0,0,0,0,0,0,0,0,0,0,0,0,"Plant response rating, Corn (corn (Zea mays); [15]): 0; Plant response rating, Velvetleaf [4, 15]: 0; Plant response rating, Foxtail, Giant [5, 15]: 10; Plant response rating, Barnyardgrass [6, 15]: 0; Plant response rating, Wheat [7, 15]: 0; Plant response rating, Crabgrass, Large [8, 12]: 10; Plant response rating, Crabgrass, Large [8, 13]: 10; Plant response rating, Crabgrass, Large [8, 15]: 30; Plant response rating, Morningglory [9, 11]: 0; Plant response rating, Morningglory [9, 12]: 0; Plant response rating, Morningglory [9, 13]: 0; Plant response rating, Morningglory [9, 15]: 0; Plant response rating, Pigweed [10, 11]: 0; Plant response rating, Pigweed [10, 12]: 10; Plant response rating, Pigweed [10, 13]: 20; Plant response rating, Pigweed [10, 15]: 50"
Cn1nc(C(F)(F)F)cc1-c1ccccc1Oc1ncc(Br)cn1 [Compound 30],0,0,0,0,0,0,0,10,30,0,0,10,0,0,0,0,0,0,0,0,"Plant response rating, Corn (corn (Zea mays); [15]): 0; Plant response rating, Velvetleaf [4, 15]: 0; Plant response rating, Foxtail, Giant [5, 15]: 10; Plant response rating, Barnyardgrass [6, 15]: 0; Plant response rating, Wheat [7, 15]: 0; Plant response rating, Crabgrass, Large [8, 12]: 10; Plant response rating, Crabgrass, Large [8, 13]: 0; Plant response rating, Crabgrass, Large [8, 15]: 20; Plant response rating, Morningglory [9, 11]: 0; Plant response rating, Morningglory [9, 12]: 10; Plant response rating, Morningglory [9, 13]: 0; Plant response rating, Morningglory [9, 15]: 0; Plant response rating, Pigweed [10, 11]: 0; Plant response rating, Pigweed [10, 12]: 10; Plant response rating, Pigweed [10, 13]: 0; Plant response rating, Pigweed [10, 15]: 30"
